In patent US20260028350A1, “TOXIN MOLECULE SUITABLE FOR ANTIBODY-DRUG CONJUGATE” (Minghui Pharmaceutical (Hangzhou) Limited, priority 2022, published 2026):

The compounds below were run on KPL-4 Cells (assay: Cell proliferation inhibition test (CellTiter-Glo, 72h)). Details: 72h incubation, Table 2 run.
Format: cell-based
Description: KPL-4 Cells in the logarithmic phase of growth were collected and re-suspended with fresh RPMI1640 complete cell culture medium, and adjusted to 2×10^4 cells/mL after cell counting. Cells were seeded into 96-well cell culture plates at 100 µL/well, and placed in a CO2 incubator (37° C., 5% CO2) overnight. In the next day, one of the cell culture plates were taken out, balanced to room temperature, and CellTiter-Glo reagent (Promega, USA), which was pre-balanced to room temperature and evenly mixed, was added into the plate at 100 μl. The plate was kept in dark for 30 min, and then luminescence value was read with a microplate reader (denoted as Go value). The other cell culture plates were taken out and added with different concentrations of test compounds or DMSO (final concentration 0.5%) in corresponding wells. After incubated for 72h in a CO2 incubator, the cell culture plates were balanced to room temperature and tested for cell viabilities using CellTiter-Glo reagent as described above (denoted as G3 value).
DXd was used as a positive reference compound with the following structure:
The cell proliferation rates were calculated using the following formula: Cell proliferation rate (%)=(mean of G3compound−mean of G0)/(mean of G3DMSO−mean of G0)×100.

Row | SMILES | GI50 [nM]
1 | CC[C@@]1(O)C(=O)OCc2c1cc1n(c2=S)Cc2c-1nc1cc(F)c(C)c3c1c2[C@@H](NC(=O)C1CC(O)C1)CC3 (stereo partly shown) [Example 29] | 5.96
2 | CC[C@@]1(O)C(=O)OCc2c1cc1n(c2=S)Cc2c-1nc1cc(F)c(C)c3c1c2[C@@H](NC(=O)C1CCC(O)CC1)CC3 (stereo partly shown) [Example 32] | 8.47
3 | CC[C@@]1(O)C(=O)OCc2c1cc1n(c2=S)Cc2c-1nc1cc(F)c(C)c3c1c2[C@@H](NC(=O)C1CCC(O)CC1)CC3 (stereo partly shown) [Example 33] | 6.34
4 | CC[C@@]1(O)C(=O)OCc2c1cc1n(c2=S)Cc2c-1nc1cc(F)c(C)c3c1c2[C@@H](NC(=O)C1CC(O)C1)CC3 (stereo partly shown) [Example 30] | 11.3

Same assay, conditions: KPL4, 72 h, 72h incubation, Table 1 run (DXd: average of 2 measurements)

Row | SMILES | GI50 [nM]
5 | CC[C@@]1(O)C(=O)OCc2c1cc1n(c2=S)Cc2c-1nc1ccc(N)c3c1c2CCC3 [Example 5] | 1.84
6 | CC[C@@]1(O)C(=O)OCc2c1cc1n(c2=S)Cc2c-1nc1cc(F)c(C)cc1c2CCCCO [Example 4] | 2.23
7 | CC[C@@]1(O)C(=O)OCc2c1cc1n(c2=S)Cc2c-1nc1cc(F)c(C)cc1c2CN [Example 2] | 2.82
8 | CC[C@@]1(O)C(=O)OCc2c1cc1n(c2=O)Cc2c-1nc1cc(F)c(C)c3c1c2[C@@H](NC(=O)CO)CS3 [DXd, reference compound] | 45.4
9 | CC[C@@]1(O)C(=O)OCc2c1cc1n(c2=S)Cc2c-1nc1cc(F)c(C)cc1c2CNC(=O)CO [Example 3] | 6.27

Same assay, conditions: KPL4, 72 h, 72h incubation, Table 2 run

Row | SMILES | GI50 [nM]
10 | CC[C@@]1(O)C(=O)OCc2c1cc1n(c2=S)Cc2c-1nc1cc3c(cc1c2CNC(=O)C(O)C1CC1)OCO3 (stereo partly shown) [Example 14] | 3.49
11 | CC[C@@]1(O)C(=O)OCc2c1cc1n(c2=S)Cc2cc3c(CCCCO)c(C)c(F)cc3nc2-1 [Example 6] | 3.45
12 | CC[C@@]1(O)C(=O)OCc2c1cc1n(c2=S)Cc2c-1nc1cc3c(cc1c2CNC(=O)C[C@@H](C)O)OCO3 [Example 18] | 4.35
13 | CC[C@@]1(O)C(=O)OCc2c1cc1n(c2=S)Cc2cc3cc(N)c(F)cc3nc2-1 [Example 13] | 0.63
14 | CC[C@@]1(O)C(=O)OCc2c1cc1n(c2=S)Cc2c-1nc1cc(F)c(C)cc1c2CNC(=O)C[C@H](C)O [Example 24] | 2.81
15 | CC[C@@]1(O)C(=O)OCc2c1cc1n(c2=S)Cc2c-1nc1cc(F)c(C)c3c1c2[C@@H](NC(=O)C[C@H](C)O)CC3 [Example 27] | 2.93
16 | CC[C@@]1(O)C(=O)OCc2c1cc1n(c2=S)Cc2c-1nc1cc3c(cc1c2CNC(=O)C1CC(O)C1)OCO3 (stereo partly shown) [Example 16] | 14.5
17 | CC[C@@]1(O)C(=O)OCc2c1cc1n(c2=S)Cc2c-1nc1cc(F)c(C)c3c1c2[C@@H](NC(=O)C[C@@H](C)O)CC3 [Example 26] | 3.24
18 | CC[C@@]1(O)C(=O)OCc2c1cc1n(c2=S)Cc2c-1nc1cc3c(cc1c2CCNC(C)C)OCO3 [Example 10] | 2.24
19 | CC[C@@]1(O)C(=O)OCc2c1cc1n(c2=S)Cc2c-1nc1cc3c(cc1c2CNC(=O)C[C@H](C)O)OCO3 [Example 19] | 4.27
20 | CC[C@@]1(O)C(=O)OCc2c1cc1n(c2=S)Cc2c-1nc1cc(F)c(C)c3c1c2[C@@H](NC(=O)C1CC(O)C1)CC3 (stereo partly shown) [Example 28] | 10.8
21 | CC[C@@]1(O)C(=O)OCc2c1cc1n(c2=S)Cc2c-1nc1ccccc1c2CCNC(C)C [Example 11] | 6.48
22 | CC[C@@]1(O)C(=O)OCc2c1cc1n(c2=S)Cc2c-1nc1cc(F)c(C)cc1c2CNC(=O)C(O)C1CC1 (stereo partly shown) [Example 23] | 1.73
23 | CC[C@@]1(O)C(=O)OCc2c1cc1n(c2=S)Cc2c-1nc1cc3c(cc1c2CNC(=O)CO)OCO3 [Example 8] | 12
24 | CC[C@@]1(O)C(=O)OCc2c1cc1n(c2=O)Cc2c-1nc1cc(F)c(C)c3c1c2[C@@H](NC(=O)CO)CS3 [DXd, reference compound] | 22.8
25 | CC[C@@]1(O)C(=O)OCc2c1cc1n(c2=S)Cc2c-1nc1cc(F)c(C)cc1c2CNC(=O)C[C@@H](C)O [Example 25] | 2.21
26 | CC[C@@]1(O)C(=O)OCc2c1cc1n(c2=S)Cc2c-1nc1cc(F)c(C)cc1c2CNC(=O)C(C)O (stereo partly shown) [Example 22] | 2.81
27 | CC[C@@]1(O)C(=O)OCc2c1cc1n(c2=S)Cc2c-1nc1cc3c(cc1c2CNC(=O)CN)OCO3 [Example 9] | 12.2
28 | CC[C@@]1(O)C(=O)OCc2c1cc1n(c2=S)Cc2c-1nc1cc(F)c(C)c3c1c2[C@@H](NC(=O)C1CCC(O)CC1)CC3 (stereo partly shown) [Example 31] | 8.62
29 | CC[C@@]1(O)C(=O)OCc2c1cc1n(c2=S)Cc2c-1nc1cc(F)c(C)cc1c2CNC(=O)C1CCC(O)CC1 (stereo partly shown) [Example 21] | 16.8
30 | CC[C@@]1(O)C(=O)OCc2c1cc1n(c2=S)Cc2c-1nc1cc3c(cc1c2C12CC(N)(C1)C2)OCO3 [Example 12] | 2.98
31 | CC[C@@]1(O)C(=O)OCc2c1cc1n(c2=S)Cc2c-1nc1cc3c(cc1c2CNC(=O)C(C)O)OCO3 (stereo partly shown) [Example 15] | 4.13
